Assay results: patent US20200023018A1, “MODULATION OF GUT MICROBIOTA IN HUNTINGTON'S DISEASE AND RETT SYNDROME” (priority 2017, published 2020)
Entries after “also recorded” stand apart in the source; their conditions may differ.

How the values were obtained:
Drosophila model of HD = experiment: Aggregation of mHDx1 in a Drosophila model of HD (immunohistochemistry, Western blot); format: in vivo
Excerpt: FIG. IB is an image of a Western blot (WB) of different batch pooled larvae examined for MHDx1 aggregation. FIG. 1C is a series of images depicting immunohistochemistry similar to FIG. 1A except that adult flies were used in FIG. 1C. FIG. 1D depicts a WB similar to FIG. 1B, except that adult flies were used in FIG. 1D. The Gal4 induction system with mHDx1 (120Q) downstream of UAS (upstream activation sequence) and the gal4 transactivator downstream of Drosophila neuronal-specific promoter Elav was used to induce the expression of mHDx1 in the nervous system of offspring. In FIG. 1C, the central brain region is shown.
Without being limited by theory, it is contemplated that intestinal microbiota contributes to the aggregation of mutant HTT in the enteric nervous stem (ENS). In a Drosophila model of HD (Barbaro et al., 2015), inducing the expression of a mutant HTT exon-1 fragment (mHDx1) in the nervous system promoted aggregation in the ENS of larvae in the vicinity of the gut (FIGS. 1A and 1B). The initial appearance of aggregates in the larval ENS is thus observed.
Accordingly, it is observed herein that treatment with an antibiotic in accordance with some embodiments herein decreases aggregates of mutant Huntingtin protein.

Rett mice [1] = experiment: GI pathology and metabolic changes in Rett mice; format: in vivo
Excerpt: In FIG. 14A, each point represents a mouse. N=6 each in FIG. 14C. […] N=6 for FIGS. 14E and 14F.
It was examined whether eliminating the intestinal microbiota of Rett mice alters GI pathology.

Rett mice [2] = experiment: Staining of brain sections of Rett mice for astrocyte and microglial markers; format: in vivo
Excerpt: FIG. 15A depicts staining with markers of activated astrocyte GFAP (center column) and GS (right column); Overlay of GFAP and GS is shown in left column. […] The Iba-1 and CD11 generally colocalized throughout the hippocampal region, but Iba-1 was expressed at higher levels in the vehicle-treated group (see, e.g, arrow), and lower levels in the rifaximin-treated group.
The finding can be re-confirmed and quantified for statistical analysis. Elevation of GFAP and GS is linked to astrocytes activation and inflammation. Astrocytes are recognized as therapeutic targets for neuroinflammation, neurodegeneration, and neuropsychiatric disorders. Subsets of gut microbes produce molecules, which reach the CNS, lower astrocytes activation, and subsequently reduce the production of inflammatory cytokines (Rothhamrner et al., 2016). Gut bacteria also greatly influence the development of microglia, which are the CNS immune cells (Erny et al., 2015).
For example, animals can be gavaged with known amounts of rifaximin to ensure equal delivery.

Rett mice [3] = experiment: Behaviors of Rett mice (nest building, climbing, wire-mesh hanging, clasping); format: in vivo
Experimental: FIG. 58 is a graph depicting that rifaximin-treated mice make more attempts at climbing a wired-mesh cylinder within a 2 min time allowed. FIG. 5C is a graph depicting that testing muscle strength by wired mesh hanging assay. […] N=6. Scoring and procedures were as described in Southwell et al., 2009.
N=6. Scoring and procedures were as described in Southwell et al., 2009.
Nest building is indicative of rodents' well-being, daily activity, positive motivational state, and healthy brain functions (Jirkof, 2014).
Nest building is indicative of rodents' wellbeing, daily activity, positive motivational state, and healthy brain functions (Jirkof, 2014). […] This is consistent with the improved mobility in Rett mice observed herein. The data herein can be confirmed with additional behavioral tests, including rotarod, beam crossing, and open field. These studies can confirm benefits of rifaximin therapy on the CNS pathology and/or aberrant behaviors in Rett syndrome.
This is based on observations that male mice start displaying symptoms when they are ˜10 weeks old.
Hind limb clasping is a marker of disease progression in Rett syndrome and other diseases with motor defects. In this assay animals were suspended by the tail ˜30 cm above the tabletop for 1 min and recorded with a video camera. No clasping is scored as 0, periodic clasping and extension is scored as 1, and full hind limb clasping was scored with occasional extension is scored as 2. Severe clasping is scored as 3.

Rett mice [4] = experiment: Neurogenesis in Rett mice (doublecortin and ki67 staining); format: in vivo
Excerpt: FIGS. 18A-C are a series of graphs and images depicting effects of microbiota on neurogenesis in Rett mice in accordance with some embodiments herein. FIG. 18A is a series of images depicting doublecortin staining of bilateral hippocampus in vehicle-treated (top panels) and rifaximin-treated Rett mice (bottm panels). FIG. 18B is a graph showing quantification of doublecortin positive cells in the dentate gyrus of bilateral hippocampi (2 layers) from 4 vehicle-treated and 6 rifaximin-treated animals, FIG. 18C is a series of images showing ki67 positive cells (arrows) in the SVZ (subventricular zone) of vehicle (top) and rifaximin-treated Rett mice. Boxed areas highlight regions with dramatic changes (considerably more ki67-positive cells are observed in the rifaximin-treated mose). NeuN staining for neurons (NeuN) is observed as bright foci throughout.

Rett mice [5] = experiment: Semi-quantitative PCR of gut bacteria in Rett mice; format: in vivo
Excerpt: FIG. 7 is an image depicting the results of semi-quantitative PCR of Rett mice of some embodiments. […] Top panels are Eubacteria amplification used as a positive control.
FIG. 19 is an image showing the results of semi-quantitative PCR in WT and Rett mice in accordance with some embodiments herein.
Less is known about the role of Tenericutes in human health. In animals however, the presence of Tenericutes correlates with digestion of crude fiber (Niu et al., 2015).

Rett mice [6] = experiment: Learning and memory of Rett mice (novel object recognition, Barnes Maze); format: in vivo; settings: rifaximin-treated Rett mice; expected
Experimental: GF WT and Rett mice are also tested for these behaviors the results are compared with the rifaxitnin-treated cohorts.
We previously used this test in an environmental mouse model of autism (Hsiao et al., 2013). Rodents in general spend more time exploring a novel object than a familiar one. The ability to choose the novel object is indicative of learning and recognition memory. The novel object recognition task is conducted in an open field arena with two different kinds of objects. Both objects are generally consistent in height and volume, but are different in shape and appearance. During habituation, the animals are allowed to explore an empty arena. […] The time spent exploring each object and the discrimination index percentage are recorded. This test is used, among other experiments, to assess the cognitive ability of vehicle- and rifaximin-treated Rett mice as well as GF cohorts and quantify and compare the results.
In this test mice learn the position of a hole to escape the brightly lit open surface of the maze. […] Rett mice as well as GF cohorts and quantify and compare the results. For data acquisition the amount of time required for the animal to locate the goal box using visuo-spatial cues surrounding the maze periphery are measured. The number of errors the mice make are recorded to find the escape hole. […]

Rett mice [7] = experiment: Whole body plethysmography in Rett mice; format: in vivo; settings: predicted
Excerpt: Whole body plethysmography are used to measure breathing irregularities in Rett mice. This phenotype is common in Rett patients (Lombardi et al., 2015). An accumulating body of literature supports the potential importance of vagus nerve in the regulation of breathing. We predict that intestinal dysbiosis in Rett impairs the vagus nerve activity and exacerbate the breathing abnormalities. […] The Buxco Fine Pointe Unrestrained Whole Body Plethysmograph system from Data Sciences International (DSI; St. Paul, Minn.) are used for these measurements.

[8] = system: Hepatic Encephalopathy (HE) patients; settings: clinical studies; cited from earlier work
[9] = system: Parkinson's disease patients; settings: pilot study; cited from earlier work
humans = settings: cited from earlier work
human microbiota = settings: cited from earlier work
[10] = Rett mice treated after weaning for 6 weeks
[11] = brain sections from the cortical regions, some of the treated Rett mice, compared to vehicle

**Q.** Which results are given for `CO[C@H]1/C=C/O[C@@]2(C)Oc3c(C)c(O)c4c(O)c(c5c(nc6cc(C)ccn65)c4c3C2=O)NC(=O)/C(C)=C\C=C\[C@H](C)[C@H](O)[C@@H](C)[C@@H](O)[C@@H](C)[C@H](OC(C)=O)[C@@H]1C` [rifaximin]?
**A.** aggregation of mHDx1 in larvae (Drosophila model of HD; Drosophila HD larvae generated in the presence of rifaximin): lowers the aggregation of mHDx1; aggregation of mHDx1 in the CNS of adult flies (Drosophila model of HD; adult HD flies): reduces the aggregation of mHDx1; GI and metabolic symptoms of Rett mice (Rett mice [1]; Rett mice): eliminated the GI and metabolic symptoms; inflammatory appearance of the GI tract (Rett mice [1]; Rett mice): reduces the inflammatory appearance of the GI tract; colon length (Rett mice [1]; [10]): selectively elongates the colon; intestinal obesity (Rett mice [1]; [10]): prevents intestinal obesity; accumulation of abdominal fat (Rett mice [1]; female Rett mice): prevented; weight gain (Rett mice [1]; female Rett mice): prevented; staining for glial fibrillary acidic protein (GFAP) (Rett mice [2]; [11]): reduced staining; staining for glutamine synthetase (GS) (Rett mice [2]; [11]): reduced staining; numbers of microglia (microglial biomarkers) (Rett mice [2]; brain sections of Rett mice, some of the treated animals): numbers were reduced; Iba-1 expression (Rett mice [2]; hippocampal region of Rett mice, versus vehicle-treated group): lower levels; activity in the cage environment (Rett mice [3]): more active; hind limb clasping phenotype (Rett mice [3]): significantly reduced clasping phenotype; nest building (Rett mice [3]): build better nests; wire-mesh hanging assay (muscle strength) (Rett mice [3]): perform better; also recorded: enhanced muscle strength; climbing a wire-meshed cylinder (Rett mice [3]; 2 min time allowed): perform better; also recorded: make more attempts to climb; hippocampal neurogenesis (Rett mice [4]; compared to vehicle, doublecortin staining): enhanced; dendritic arborization (Rett mice [4]; compared to vehicle, hippocampus): enhanced; proliferation of cells in the subventricular zone (SVZ) (Rett mice [4]; ki67): Enhanced proliferation; abundance of Bifidobacteria in the GI tract (Rett mice [5]): did not increase; abundance of the phylum Tenericutes (Rett mice [5]): increased abundance; learning and memory (Rett mice [6]): learning and memory are improved; breathing defects (Rett mice [7]): ameliorate some of the breathing defects; bacterial load [8]: decreases bacterial load; leaky gut [8]: corrects leaky gut; severity of aberrant behaviors (anxiety, irritability, depression, motor symptoms, cognitive impairment) [8]: reduces the severity of several aberrant behaviors; motor functions [9]: improved motor functions; safety and tolerability (humans): safe and well tolerated; proliferation of probiotic species including Bifidobacteria (human microbiota): promotes the proliferation
